Results taken from publication PMC3084506 (Archives of Drug Information, 2011).
Entries after “also recorded” stand apart in the source; their conditions may differ. Like-named read-outs stand apart in the source and are kept apart here. Each block holds one compound with its values, some of them ahead of it. Square brackets hold non-standard residues; d marks the D form. Peptide text beside a SMILES is read from it. Sar = CNCC(=O)O

Experiments:
[1] = system: MDCKI cells; experiment: Effect of inhibitors on ciprofloxacin bidirectional transport in MDCKI cells; conditions: 25 µM ciprofloxacin, inhibitor concentrations as in Figure 4 legend
[2] = system: P-gp (MDCKI-MDR1 cells); conditions: studies done in our lab
[3] = molecular target: T1, P-gp (L-MDR1 cells) (Homo sapiens, UniProt P08183); conditions: LLC-PK1 vs L-MDR1, cited from earlier work
T1 sequence (P08183 whole entry): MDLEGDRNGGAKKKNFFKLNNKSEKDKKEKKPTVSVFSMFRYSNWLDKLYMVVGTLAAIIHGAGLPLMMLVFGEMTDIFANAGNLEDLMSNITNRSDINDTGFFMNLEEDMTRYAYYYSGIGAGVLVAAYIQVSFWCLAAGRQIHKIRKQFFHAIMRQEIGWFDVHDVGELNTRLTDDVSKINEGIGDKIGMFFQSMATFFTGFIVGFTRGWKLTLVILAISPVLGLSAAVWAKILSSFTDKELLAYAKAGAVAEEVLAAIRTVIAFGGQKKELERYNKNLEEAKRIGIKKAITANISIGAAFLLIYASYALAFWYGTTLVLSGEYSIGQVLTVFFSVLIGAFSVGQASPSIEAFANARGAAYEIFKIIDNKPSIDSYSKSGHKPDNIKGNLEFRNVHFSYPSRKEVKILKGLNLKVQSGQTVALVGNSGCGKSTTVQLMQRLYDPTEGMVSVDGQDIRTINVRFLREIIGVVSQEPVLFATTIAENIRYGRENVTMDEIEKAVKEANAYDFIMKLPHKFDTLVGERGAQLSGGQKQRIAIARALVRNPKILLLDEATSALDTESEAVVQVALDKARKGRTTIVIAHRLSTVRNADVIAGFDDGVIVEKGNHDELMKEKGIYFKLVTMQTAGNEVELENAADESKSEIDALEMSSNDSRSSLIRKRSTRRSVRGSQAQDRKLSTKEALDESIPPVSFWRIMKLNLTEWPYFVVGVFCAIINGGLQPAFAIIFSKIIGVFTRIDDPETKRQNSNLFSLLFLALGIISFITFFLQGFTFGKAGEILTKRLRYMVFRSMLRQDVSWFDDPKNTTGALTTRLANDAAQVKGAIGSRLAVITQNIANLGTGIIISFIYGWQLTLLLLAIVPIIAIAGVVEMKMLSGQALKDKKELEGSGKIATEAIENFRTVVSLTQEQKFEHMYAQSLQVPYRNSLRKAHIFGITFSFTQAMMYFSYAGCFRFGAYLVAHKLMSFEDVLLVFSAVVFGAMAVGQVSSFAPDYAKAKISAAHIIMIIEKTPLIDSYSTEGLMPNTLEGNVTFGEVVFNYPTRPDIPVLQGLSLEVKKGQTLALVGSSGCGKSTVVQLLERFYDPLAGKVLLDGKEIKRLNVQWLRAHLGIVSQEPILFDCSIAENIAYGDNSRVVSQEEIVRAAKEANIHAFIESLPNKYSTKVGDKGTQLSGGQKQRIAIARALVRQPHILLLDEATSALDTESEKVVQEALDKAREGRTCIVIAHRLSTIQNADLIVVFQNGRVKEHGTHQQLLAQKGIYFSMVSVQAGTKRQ

[4] = Bidirectional transport study in MDCKI cells; type: in vitro ADME, canine; conditions: dog, MDCK
[5] = molecular target: T1, P-gp (L-MDR1 cells); experiment: Bidirectional transport study in L-MDR1 cells; type: in vitro ADME; conditions: LLC-PK1
[6] = in vitro; conditions: human, MDCK-MDR1
[7] = Bidirectional transport study in LLC-PK1 cells; type: in vitro ADME; conditions: pig
[8] = molecular target: MRP1 (L-MRP1 cells) (Homo sapiens, UniProt P33527); experiment: Bidirectional transport study in L-MRP1 cells; type: in vitro ADME; conditions: LLC-PK1
Chain of MRP1 (L-MRP1 cells) (P33527 whole entry): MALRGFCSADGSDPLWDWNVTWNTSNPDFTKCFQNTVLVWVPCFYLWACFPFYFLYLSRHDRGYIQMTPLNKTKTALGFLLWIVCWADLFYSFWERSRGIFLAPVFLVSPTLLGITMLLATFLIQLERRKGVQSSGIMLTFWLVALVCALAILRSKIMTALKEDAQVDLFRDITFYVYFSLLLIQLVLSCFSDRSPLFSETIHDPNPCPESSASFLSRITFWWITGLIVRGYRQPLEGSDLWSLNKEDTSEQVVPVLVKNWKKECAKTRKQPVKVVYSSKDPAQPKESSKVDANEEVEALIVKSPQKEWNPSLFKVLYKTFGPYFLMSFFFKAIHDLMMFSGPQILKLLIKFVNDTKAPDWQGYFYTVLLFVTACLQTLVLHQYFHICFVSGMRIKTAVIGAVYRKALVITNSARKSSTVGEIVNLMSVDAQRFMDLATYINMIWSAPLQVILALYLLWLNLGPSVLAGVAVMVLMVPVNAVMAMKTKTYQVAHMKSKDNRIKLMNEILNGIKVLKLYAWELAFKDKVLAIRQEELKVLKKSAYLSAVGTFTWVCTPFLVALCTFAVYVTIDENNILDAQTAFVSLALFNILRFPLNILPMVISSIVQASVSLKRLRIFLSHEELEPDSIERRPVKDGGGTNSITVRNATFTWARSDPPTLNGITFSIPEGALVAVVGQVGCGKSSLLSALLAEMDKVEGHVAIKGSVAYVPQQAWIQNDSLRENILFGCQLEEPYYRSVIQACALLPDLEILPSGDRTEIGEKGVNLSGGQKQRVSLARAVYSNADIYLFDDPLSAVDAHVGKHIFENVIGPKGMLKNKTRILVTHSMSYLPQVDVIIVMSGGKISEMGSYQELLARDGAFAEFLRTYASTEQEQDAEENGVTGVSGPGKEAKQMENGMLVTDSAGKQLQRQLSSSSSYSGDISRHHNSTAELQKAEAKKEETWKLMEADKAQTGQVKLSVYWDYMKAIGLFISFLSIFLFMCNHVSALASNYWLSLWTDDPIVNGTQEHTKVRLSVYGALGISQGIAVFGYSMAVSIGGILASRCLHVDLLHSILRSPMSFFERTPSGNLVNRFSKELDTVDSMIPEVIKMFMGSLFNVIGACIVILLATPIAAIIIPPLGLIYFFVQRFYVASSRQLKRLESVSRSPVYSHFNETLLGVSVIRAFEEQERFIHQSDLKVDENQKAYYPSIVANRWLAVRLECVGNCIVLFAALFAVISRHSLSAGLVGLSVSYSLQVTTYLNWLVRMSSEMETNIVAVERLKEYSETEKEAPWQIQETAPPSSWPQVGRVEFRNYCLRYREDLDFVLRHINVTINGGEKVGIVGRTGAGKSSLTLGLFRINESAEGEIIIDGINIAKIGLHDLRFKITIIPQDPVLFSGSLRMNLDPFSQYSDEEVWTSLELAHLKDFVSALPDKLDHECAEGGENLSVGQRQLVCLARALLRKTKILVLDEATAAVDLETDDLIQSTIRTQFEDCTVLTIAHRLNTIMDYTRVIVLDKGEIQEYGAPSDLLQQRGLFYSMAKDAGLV

[9] = cited from earlier work
[10] = system: P-gp (MDCKI-MDR1 cells); conditions: MDCKI-MDR1 and L-MDR1 cells; cited from earlier work
[11] = molecular target: P-gp (MDCKII-MDR1 cells) (Homo sapiens, UniProt P08183); conditions: MDCKII vs MDCKII-MDR1; cited from earlier work
Chain of P-gp (MDCKII-MDR1 cells) (P08183 whole entry): as the sequence (P08183 whole entry) above

[12] = system: OAT3; conditions: cited from earlier work
[13] = humans; cited from earlier work

SMILES: COc1cc2c(cc1OC)CN(CCc1ccc(NC(=O)c3cccc4c(=O)c5cccc(OC)c5[nH]c34)cc1)CC2 [GG918]
effect on ciprofloxacin transport in MDCKI cells (in words) [1]: no significant effects

P-gp substrate status from transport studies [2]: substrate of P-gp
SMILES: CC[C@]1(O)C[C@@H]2CN(CCc3c([nH]c4ccccc34)[C@@](C(=O)OC)(c3cc4c(cc3OC)N(C)[C@H]3[C@@](O)(C(=O)OC)[C@H](OC(C)=O)[C@]5(CC)C=CCN6CC[C@]43[C@@H]65)C2)C1 [vinblastine]
difference in transport between LLC-PK1 and L-MDR1 cells [3]: no difference | difference in transport between LLC-PK1 and L-MDR1 cells ([3]; listed as Vinblastine): did not show differences | effect on ciprofloxacin transport in MDCKI cells (in words) [1]: no significant effects

Papp at 1 h [4]: ~0.5 ×10⁻⁶ cm/s | Papp at 1 h [5]: ~1.2 ×10⁻⁶ cm/s | Papp at 1 h [6]: ~0.5 ×10⁻⁶ cm/s | Papp at 1 h [7]: ~1.3 ×10⁻⁶ cm/s | Papp at 1 h [8]: ~3.5 ×10⁻⁶ cm/s
SMILES: OC[C@@H](O)[C@@H](O)[C@H](O)[C@H](O)CO [mannitol]

SMILES: O=C(O)c1cn(C2CC2)c2cc(N3CCNCC3)c(F)cc2c1=O [ciprofloxacin]
eliminated via intestinal secretion [9]: at least 10%

SMILES: COc1cc(Cc2cnc(N)nc2N)cc(OC)c1OC [trimethoprim]
P-gp substrate status from transport studies [10]: substrate of P-gp | difference in transport between MDCKII and MDCKII-MDR1 cells [11]: no difference

SMILES: CN(CC(=O)O)C(=O)CN [glycosarcosine] (H-Gly-[Sar]-OH)
effect on ciprofloxacin transport in MDCKI cells (in words) [1]: no significant effects; also recorded: no effect

SMILES: CCCN(CCC)S(=O)(=O)c1ccc(C(=O)O)cc1 [probenecid]
interaction with OAT3 [12]: inhibitor of OAT3 | effect on ciprofloxacin renal secretion [13]: competitively inhibit

SMILES: C=C[C@H]1C[N@@]2CC[C@H]1C[C@@H]2[C@@H](O)c1ccnc2ccc(OC)cc12 [quinidine]
effect on ciprofloxacin transport in MDCKI cells (in words) [1]: no significant effects
